Source: patent publication US20240050428A1 (Cullgen (Shanghai), Inc., priority 2020, published 2024)
Read-outs that look alike come from different tables or passages of the source.

How the values were obtained:
MOLM-13 cells = experiment: Cell viability assay (CellTiter-Glo) in MOLM-13 cells, alone or with gilteritinib; format: cell-based; details: Homo sapiens, MOLM-13 cells, CellTiter-Glo
MV4;11 cells = experiment: Cell viability assay (CellTiter-Glo) in MV4;11 cells, alone or with gilteritinib; format: cell-based; details: Homo sapiens, MV4;11 cells, CellTiter-Glo, read-out: MV4
[1] = MOLM-13, 72 h, compound alone (without gilteritinib), three days, read-out: MOLM-13 IC50
[2] = MOLM-13, 72 h, compound with gilteritinib 20 nM, three days, read-out: MOLM-13 IC50 gilteritinib
[3] = MV4-11, 72 h, compound alone (without gilteritinib), three days, 11 IC50
[4] = MV4-11, 72 h, compound with gilteritinib 10 nM, three days, 11 IC50 gilteritinib
[5] = MOLM-13, 72 h, with gilteritinib 20 nM, three days, read-out: MOLM-13 IC50 gilteritinib
[6] = MV4-11, 72 h, with gilteritinib 10 nM, three days, 11 IC50 gilteritinib

Row | IC50 (MOLM-13 cells; [1]) [nM] | IC50 (MOLM-13 cells; [2]) [nM] | IC50 (MV4;11 cells; [3]) [nM] | IC50 (MV4;11 cells; [4]) [nM] | IC50 (MOLM-13 cells; [5]) [nM] | IC50 (MV4;11 cells; [6]) [nM] | SMILES | further results
1 | 10 to 100 | < 10 | 10 to 100 | < 10 |  |  | O=C1CCC(N2C(=O)c3ccc(NC[C@H]4C[C@H](n5cc(-c6ncccc6N6CCNCC6)c(C6CC6)n5)C4)cc3C2=O)C(=O)N1 (stereo partly drawn) [GS-604, 5-(((trans-3-(3-cyclopropyl-4-(3-(piperazin-1-yl)pyridin-2-yl)-1H-pyrazol-1-yl)cyclobutyl)methyl)amino)-2-(2,6-dioxopiperidin-3-yl)isoindoline-1,3-dione] | 
2 | 10 to 100 | < 10 | 10 to 100 | < 10 |  |  | O=C1CCC(N2C(=O)c3ccc(NCCC[C@H]4C[C@H](n5cc(-c6cnc7ccc(NC8COC8)cc7n6)cn5)C4)cc3C2=O)C(=O)N1 (stereo partly drawn) [GS-585, 2-(2,6-Dioxopiperidin-3-yl)-5-((3-(trans-3-(4-(7-(oxetan-3-ylamino)quinoxalin-2-yl)-1H-pyrazol-1-yl)cyclobutyl)propyl)amino)isoindoline-1,3-dione] | 
3 | 10 to 100 | < 10 | 10 to 100 | < 10 |  |  | CC(C)n1ccc2c(-c3cn([C@H]4C[C@H](CNc5ccc6c(c5)C(=O)N(C5CCC(=O)NC5=O)C6=O)C4)nc3C3CC3)nccc21 (stereo partly drawn) [GS-623, 5-(((trans-3-(3-Cyclopropyl-4-(1-isopropyl-1H-pyrrolo[3,2-c]pyridin-4-yl)-1H-pyrazol-1-yl)cyclobutyl)methyl)amino)-2-(2,6-dioxopiperidin-3-yl)isoindoline-1,3-dione] | 
4 | > 1000 | > 1000 | > 1000 | > 1000 |  |  | O=C1CCC(N2C(=O)c3ccc(NC4CC(CCCn5cc(-c6cnc7ccccc7n6)cn5)C4)cc3C2=O)C(=O)N1 (stereo not shown) [GS-556] | 
5 | < 10 | < 10 | < 10 | < 10 |  |  | Cn1ncc2c(-c3cn([C@H]4C[C@H](CNc5ccc6c(c5)C(=O)N(C5CCC(=O)NC5=O)C6=O)C4)nc3C3CC3)nccc21 (stereo partly drawn) [GS-611, 5-(((trans-3-(3-Cyclopropyl-4-(1-methyl-1H-pyrazolo[4,3-c]pyridin-4-yl)-1H-pyrazol-1-yl)cyclobutyl)methyl)amino)-2-(2,6-dioxopiperidin-3-yl)isoindoline-1,3-dione] | 
6 | > 1000 | < 10 | > 1000 | 10 to 100 |  |  | C[C@@H]1CN(c2ccc3ncc(-c4cnn([C@H]5C[C@H](CCCNc6ccc7c(c6)C(=O)N(C6CCC(=O)NC6=O)C7=O)C5)c4)nc3c2)CCN1C (stereo partly drawn) [GS-581, 5-((3-(trans-3-(4-(7-((R)-3,4-Dimethylpiperazin-1-yl)quinoxalin-2-yl)-1H-pyrazol-1-yl)cyclobutyl)propyl)amino)-2-(2,6-dioxopiperidin-3-yl)isoindoline-1,3-dione] | 

More lines, now with the values behind:

Row | SMILES | IC50 (MOLM-13 cells; [1]) [nM] | IC50 (MOLM-13 cells; [2]) [nM] | IC50 (MV4;11 cells; [3]) [nM] | IC50 (MV4;11 cells; [4]) [nM] | IC50 (MOLM-13 cells; [5]) [nM] | IC50 (MV4;11 cells; [6]) [nM] | further results
7 | O=C1CCC(N2C(=O)c3ccc(NCCCCCC(=O)N4CCC(n5cc(N6CCC6)cn5)CC4)cc3C2=O)C(=O)N1 (stereo not shown) [GS-063, 5-((6-(4-(4-(Azetidin-1-yl)-1H-pyrazol-1-yl)piperidin-1-yl)-6-oxohexyl)amino)-2-(2,6-dioxopiperidin-3-yl)isoindoline-1,3-dione] |  |  |  |  |  |  | IC50 (MOLM-13 cells; MOLM-13, 72 h, with 20 nM gilteritinib, 3 days, read-out: MOLM-13 IC50 gilteritinib): 3680 nM; IC50 (MOLM-13 cells; MOLM-13, 72 h, without gilteritinib, 3 days, read-out: MOLM-13 IC50): > 10000 nM; IC50 (MV4;11 cells; MV4-11, 72 h, with 10 nM gilteritinib, 3 days, 11 IC50 gilteritinib): 8550 nM; IC50 (MV4;11 cells; MV4-11, 72 h, without gilteritinib, 3 days, 11 IC50): > 10000 nM
8 | O=C1CCC(N2C(=O)c3ccc(NCCCCCCNc4ncc(-c5cnc6ccccc6n5)s4)cc3C2=O)C(=O)N1 (stereo not shown) [GS-385, 2-(2,6-Dioxopiperidin-3-yl)-5-((6-((5-(quinoxalin-2-yl)thiazol-2-yl)amino)hexyl)amino)isoindoline-1,3-dione] | 100 to 1000 |  | 100 to 1000 |  | 10 to 100 | 10 to 100 | 
9 | Cc1cccc(-c2cnn(CCCCCCNc3ccc4c(c3)C(=O)N(C3CCC(=O)NC3=O)C4=O)c2)n1 (stereo not shown) [GS-498, 2-(2,6-dioxopiperidin-3-yl)-5-((6-(4-(6-methylpyridin-2-yl)-1H-pyrazol-1-yl)hexyl)amino)isoindoline-1,3-dione] | 100 to 1000 | 10 to 100 | 100 to 1000 | 10 to 100 |  |  | 
10 | O=C1CCC(N2C(=O)c3ccc(NC[C@H]4C[C@H](n5cc(-c6ccc(F)cn6)c(C6CC6)n5)C4)cc3C2=O)C(=O)N1 (stereo partly drawn) [GS-283, 5-(((trans-3-(3-Cyclopropyl-4-(5-fluoropyridin-2-yl)-1H-pyrazol-1-yl)cyclobutyl)methyl)amino)-2-(2,6-dioxopiperidin-3-yl)isoindoline-1,3-dione] | > 1000 |  | 100 to 1000 |  | 10 to 100 | 10 to 100 | 
11 | O=C1CCC(N2C(=O)c3ccc(NCCCC4CC(n5cc(-c6cnc7ccc(N8CCNCC8)cc7n6)cn5)C4)cc3C2=O)C(=O)N1 (stereo not shown) [GS-174, 2-(2,6-Dioxopiperidin-3-yl)-5-((3-(3-(4-(7-(piperazin-1-yl)quinoxalin-2-yl)-1H-pyrazol-1-yl)cyclobutyl)propyl)amino)isoindoline-1,3-dione] | > 1000 |  | 100 to 1000 |  | < 10 | 10 to 100 | 
12 | O=C1CCC(N2C(=O)c3ccc(NCCCc4ccc(F)c(N5CCC(c6ccccc6)CC5)c4)cc3C2=O)C(=O)N1 (stereo not shown) [GS-506, 2-(2,6-Dioxopiperidin-3-yl)-5-((3-(4-fluoro-3-(4-phenylpiperidin-1-yl)phenyl)propyl)amino)isoindoline-1,3-dione] |  |  |  |  |  |  | IC50 (MOLM-13 cells; 72 h, compound alone (without gilteritinib), three days, read-out: MOLM-13 IC50): > 1000 nM; IC50 (MOLM-13 cells; 72 h, compound with gilteritinib 20 nM, three days, read-out: MOLM-13 IC50 gilteritinib): 100 to 1000 nM; IC50 (MV4;11 cells; 72 h, compound alone (without gilteritinib), three days, 11 IC50): > 1000 nM; IC50 (MV4;11 cells; 72 h, compound with gilteritinib 10 nM, three days, 11 IC50 gilteritinib): > 1000 nM
13 | O=C1CCC(N2C(=O)c3ccc(NC[C@H]4C[C@H](n5cc(-c6cccc(NC7CNC7)n6)c(C6CC6)n5)C4)cc3C2=O)C(=O)N1 (stereo partly drawn) [GS-274, 5-(((trans-3-(4-(6-(Azetidin-3-ylamino)pyridin-2-yl)-3-cyclopropyl-1H-pyrazol-1-yl)cyclobutyl)methyl)amino)-2-(2,6-dioxopiperidin-3-yl)isoindoline-1,3-dione] | > 1000 |  | > 1000 |  | > 1000 | > 1000 | 
14 | O=C1CCC(N2C(=O)c3ccc(NC[C@H]4C[C@H](n5cc(-c6cc(NC7CCNCC7)ccn6)c(C6CC6)n5)C4)cc3C2=O)C(=O)N1 (stereo partly drawn) [GS-294, 5-(((trans-3-(3-Cyclopropyl-4-(4-(piperidin-4-ylamino)pyridin-2-yl)-1H-pyrazol-1-yl)cyclobutyl)methyl)amino)-2-(2,6-dioxopiperidin-3-yl)isoindoline-1,3-dione] | > 1000 |  | > 1000 |  | > 1000 | > 1000 | 
15 | O=C1CCC(N2C(=O)c3ccc(NCCc4ccc(-n5cc(-c6cnc7ccccc7n6)cn5)cc4)cc3C2=O)C(=O)N1 (stereo not shown) [GS-117, 2-(2,6-Dioxopiperidin-3-yl)-5-((4-(4-(quinoxalin-2-yl)-1H-pyrazol-1-yl)phenethyl)amino)isoindoline-1,3-dione] | > 1000 |  | > 1000 |  | 100 to 1000 | 100 to 1000 | 
16 | O=C1CCC(N2C(=O)c3ccc(NCCCCC(=O)N4C5CCC4CC(n4cc(-c6cnc7ccccc7n6)cn4)C5)cc3C2=O)C(=O)N1 (stereo not shown) [GS-136, 2-(2,6-Dioxopiperidin-3-yl)-5-((5-oxo-5-(3-(4-(quinoxalin-2-yl)-1H-pyrazol-1-yl)-8-azabicyclo[3.2.1]octan-8-yl)pentyl)amino)isoindoline-1,3-dione] | > 1000 |  | > 1000 |  | > 1000 | > 1000 | 
17 | O=C1CCC(N2C(=O)c3ccc(NCCC[C@H]4C[C@H](n5cc(-c6cnc7ccc(N8C[C@H]9C[C@@H]8CO9)cc7n6)cn5)C4)cc3C2=O)C(=O)N1 (stereo partly drawn) [GS-410, 5-((3-(trans-3-(4-(7-((1R,4R)-2-oxa-5-azabicyclo[2.2.1]heptan-5-yl)quinoxalin-2-yl)-1H-pyrazol-1-yl)cyclobutyl)propyl)amino)-2-(2,6-dioxopiperidin-3-yl)isoindoline-1,3-dione] | 10 to 100 |  | 10 to 100 |  | < 10 | < 10 | 
18 | O=C1CCC(N2C(=O)c3ccc(NCCCN4CCC(N5CCN(c6ccccn6)CC5)C4)cc3C2=O)C(=O)N1 (stereo not shown) [GS-344, 2-(2,6-Dioxopiperidin-3-yl)-5-((3-(3-(4-(pyridin-2-yl)piperazin-1-yl)pyrrolidin-1-yl)propyl)amino)isoindoline-1,3-dione] | > 1000 |  | > 1000 |  | > 1000 | > 1000 | 
19 | O=C1CCC(N2C(=O)c3ccc(NCCC[C@H]4C[C@H](n5cc(-c6cnc7c(C8CCOCC8)cccc7n6)cn5)C4)cc3C2=O)C(=O)N1 (stereo partly drawn) [GS-427, 2-(2,6-dioxopiperidin-3-yl)-5-((3-(trans-3-(4-(5-(tetrahydro-2H-pyran-4-yl)quinoxalin-2-yl)-1H-pyrazol-1-yl)cyclobutyl)propyl)amino)isoindoline-1,3-dione] | 10 to 100 | < 10 | 10 to 100 | < 10 |  |  | 
